From article PMC8748766, “The catalytic activity of TCPTP is auto-regulated by its intrinsically disordered tail and activated by Integrin alpha-1” (Nature Communications, 2022) come the findings set out here.

Experiment [1] has as its target T1, TCPTPCAT (Homo sapiens, UniProt P17706).
T1 construct: TCPTP and TCPTPCAT (residue 1–314) against 2 phosphotyrosine peptides derived from EGFR; His6 (N, cleaved yes); made in house; host or cells: E. coli BL21 (DE3) RIL
T1 sequence (P17706 1-314 isoform P17706-2): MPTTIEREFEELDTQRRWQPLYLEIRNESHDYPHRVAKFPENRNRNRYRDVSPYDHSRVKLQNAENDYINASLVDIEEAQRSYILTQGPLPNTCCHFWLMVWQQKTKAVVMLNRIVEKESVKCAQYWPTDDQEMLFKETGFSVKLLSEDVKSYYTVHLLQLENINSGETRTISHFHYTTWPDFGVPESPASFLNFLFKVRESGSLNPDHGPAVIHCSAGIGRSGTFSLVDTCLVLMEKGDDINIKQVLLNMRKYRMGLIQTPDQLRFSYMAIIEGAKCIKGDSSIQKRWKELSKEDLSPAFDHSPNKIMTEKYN
Nature of the experiment: Kinetics of TCPTPCAT with saturating ITGA1 peptide, pEGFR peptide-1 substrate. It counts as biochemical. To be noted: TCPTPCAT saturated with ITGA1 peptide (ITGA1_TR 1 μM), mean ± SE, n = 9. The text has this: (§1) Polymerase chain reaction (PCR) fragments of TCPTP (residues: 1–387) TCPTPCAT (catalytic domain, residues: 1–288, 1–302 or 1–314), TCPTPTail (C-terminal tail, residues: 289–387 or 303–387) were amplified from full-length human TCPTP (TC45 isoform). TCPTP, TCPTPCAT (residues: 1–288, 1–314), and TCPTPTail (residues: 289–387) fragments were cloned into pMCSG7 including a N-terminal His6-tag using ligation-independent cloning. For all NMR experiments, the PCR fragments of TCPTP, TCPTPCAT (residues: 1–302) and TCPTPTail (residue: 303–387) were sub-cloned into pRP1B as previously described.
(§2) The rate of dephosphorylation of TCPTP and TCPTPCAT (residue 1–314) against 2 phosphotyrosine peptides derived from EGFR was monitored either with or without ITGA1 peptide (ITGA1_FCT & ITGA1_TR) in assay buffer (25 mM Hepes pH 7.4, 50 mM NaCl and 1 mM DTT). Lyophilized powder of all synthetic peptides was dissolved in assay buffer without DTT (phosphopeptides, 5 mM; ITGA1 peptides, 2 mM). For the kinetic analysis, the concentration of the enzyme was fixed at 1 nM while the substrate (phosphopeptides) concentration was varied from 2.5 μM to 160 μM in a total reaction volume of 200 μl. Effect of ITGA1 peptide on TCPTP & TCPTPCAT kinetics were assessed in saturated condition by adding an excess amount of ITGA1 peptide to the reaction mixture (ITGA1_TR = 1 μM; ITGA1_FCT = 25 μM). The reaction was incubated at 30 °C for 30 min and stopped by the addition of 30 μl phosphate reagent (phosphate colorimetric assay kit; Bio Vision) following the manufacturer’s instructions. Data were normalized and fitted using a nonlinear curve, and kinetics parameters (KM and kcat) were calculated from the Michaelis-Menten equation using Graph Pad Prism 9.0. All data points in the enzyme kinetics experiment were measured in triplicate, and the experiments were repeated three times.

Another experiment has as its target T2, TCPTP (Homo sapiens, UniProt P17706).
T2 construct: fragments of TCPTP (residues: 1–387); His6 (N, cleaved yes); made in house; host or cells: E. coli BL21 (DE3) RIL
T2 sequence (P17706 1-387 isoform P17706-2): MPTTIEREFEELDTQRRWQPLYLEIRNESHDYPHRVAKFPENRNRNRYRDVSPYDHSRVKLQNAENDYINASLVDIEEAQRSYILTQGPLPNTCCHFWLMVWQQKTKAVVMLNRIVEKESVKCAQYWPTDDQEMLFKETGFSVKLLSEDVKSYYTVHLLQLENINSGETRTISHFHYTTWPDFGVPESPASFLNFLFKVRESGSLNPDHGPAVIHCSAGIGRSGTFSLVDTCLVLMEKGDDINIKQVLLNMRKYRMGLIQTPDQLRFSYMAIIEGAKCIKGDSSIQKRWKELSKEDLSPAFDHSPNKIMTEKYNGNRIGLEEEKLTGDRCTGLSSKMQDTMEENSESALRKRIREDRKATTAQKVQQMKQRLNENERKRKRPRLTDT
Nature of the experiment: Kinetics of TCPTP with saturating ITGA1 peptide, pEGFR peptide-2 substrate. The class given is biochemical. Particulars: TCPTP saturated with ITGA1 peptide (ITGA1_TR 1 μM; ITGA1_FCT 25 μM), mean ± SE, n = 9.
Source text: as §1, §2

Experiment [2] has as its target T1, TCPTPCAT
Nature of the experiment: Kinetics of TCPTPCAT with saturating ITGA1 peptide, pEGFR peptide-2 substrate. Particulars: TCPTPCAT saturated with ITGA1 peptide (ITGA1_TR 1 μM), mean ± SE, n = 9. The class given is biochemical.
Source text: as §1, §2

Experiment [3] has as its target T1, TCPTPCAT
Nature of the experiment: NMR titration (2D HSQC/TROSY) binding to TCPTPCAT
Particulars: 2D [1H,15N] TROSY, unlabeled ligand added.
Source text: as §1
NMR data were collected on either Bruker NEO 600 MHz or 800 MHz spectrometers equipped with TCI HCN z-gradient cryoprobes at 298 K or 283 K. NMR measurements of TCPTP’s variant construct were recorded using (^1H,^15N)-, (^2H,^15N)-, (^1H,^15N,^13C), or (^2H,^15N,^13C)-labeled protein at a final concentration of 0.6 mM for backbone assignment or 0.1 mM for titration in NMR buffer and 90% H2O/10% D2O. The sequence-specific backbone assignments of TCPTP (residues 1–387), TCPTPCAT (residues 1–302), TCPTPTail (residues 303–387) and other variants were achieved using 3D triple resonance experiments including […], 3D HNCA, 3D HN(CO)CA, 3D HN(CO)CACB, and 3D HNCACB either as HSQC or TROSY variations. All NMR data were processed using TopSpin 4.0.5[44] and analyzed using either CARA (http://www.cara.nmr.ch) and/or CcpNMR[45].

Setting [4] is: pEGFR peptide-2, pH 7.4, 30 °C 30 min.

One may read the kcat as the number of substrate molecules converted per active site and unit of time at saturation. Broadly, the Km is the concentration of substrate that gives half-maximal velocity.

On to “RPLKKKMEKRPLKKKMEK [ITGA1_TR, ITGA1 tandem repeat (2x ITGA1_TCT): …]”, for which the kcat at TCPTPCAT [1] (pEGFR peptide-1, 1 nM enzyme, pH 7.4, 30 °C 30 min) was determined as 31.1 ± 0.7 s⁻¹; at TCPTP (setting [4]) it was 34.7 ± 2.3 s⁻¹; on TCPTPCAT [2] (setting [4]), 35.6 ± 0.6 s⁻¹. For the same sequence, the Km came out at 23 ± 1.6 µM on TCPTPCAT [1] (pEGFR peptide-1, pH 7.4, 30 °C); 40.9 ± 6.8 µM at TCPTP (pEGFR peptide-2); 28.3 ± 1.3 µM on TCPTPCAT [2] (pEGFR peptide-2). Further, the results for the kcat/Km at TCPTPCAT [1] (pEGFR peptide-1), at TCPTP (pEGFR peptide-2) and at TCPTPCAT [2] (pEGFR peptide-2) were 1.3e+06 ± 100000 M⁻¹ s⁻¹, 0.8 ± 0.1 µM -1s-1 and 1.2 ± 0.1 µM -1s-1, respectively. In addition, on TCPTPCAT [3], the “NMR titration: CSPs in (2H,15N)-labeled TCPTPCAT” value is recorded as “significant CSPs in the same residues”.
